The values below are quoted from earlier work in PMC9851200, “Multiparameter phenotypic screening for endogenous TFEB and TFE3 translocation identifies novel chemical series modulating lysosome function” (Autophagy, 2022).

Holding throughout (parameters): method as in original PKIS2 published data
The target in series [1] is kinases (KINOMEscan panel) (Homo sapiens, UniProt P04049). The note with it: RAF1; Published KINOMEscan; ref original PKIS2 published data; cited from earlier work.
In series [2] the target is kinases (KINOMEscan panel) (Homo sapiens, UniProt P30291). Particulars: WEE1; Published KINOMEscan; ref original PKIS2 published data; cited from earlier work.
Series [3] deals with T1, kinases (KINOMEscan panel) (Homo sapiens, UniProt Q15835).
T1 sequence (Q15835 1-563): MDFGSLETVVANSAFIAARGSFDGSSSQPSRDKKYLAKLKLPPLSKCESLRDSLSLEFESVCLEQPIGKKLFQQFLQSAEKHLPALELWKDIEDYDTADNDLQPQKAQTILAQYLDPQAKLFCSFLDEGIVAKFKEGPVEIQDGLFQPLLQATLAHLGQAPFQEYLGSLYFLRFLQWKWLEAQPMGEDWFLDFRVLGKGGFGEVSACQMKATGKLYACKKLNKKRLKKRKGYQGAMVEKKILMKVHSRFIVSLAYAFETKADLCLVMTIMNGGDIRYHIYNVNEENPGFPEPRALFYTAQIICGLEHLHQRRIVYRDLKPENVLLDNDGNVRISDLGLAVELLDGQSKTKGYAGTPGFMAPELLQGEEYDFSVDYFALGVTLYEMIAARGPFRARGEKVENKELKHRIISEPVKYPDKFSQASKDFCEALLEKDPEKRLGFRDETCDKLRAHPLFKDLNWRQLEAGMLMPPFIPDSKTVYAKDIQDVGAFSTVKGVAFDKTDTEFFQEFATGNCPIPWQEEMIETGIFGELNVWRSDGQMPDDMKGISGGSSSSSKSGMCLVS
The note with it: Published KINOMEscan; ref original PKIS2 published data; cited from earlier work.

In series [4] the target is kinases (KINOMEscan panel) (Homo sapiens, UniProt Q16513). The note with it: kinase PKN2; Published KINOMEscan; ref original PKIS2 published data; cited from earlier work.
The target in series [5] is T2, kinases (KINOMEscan panel) (Homo sapiens, UniProt Q8NFD2).
T2 sequence (Q8NFD2 1-765): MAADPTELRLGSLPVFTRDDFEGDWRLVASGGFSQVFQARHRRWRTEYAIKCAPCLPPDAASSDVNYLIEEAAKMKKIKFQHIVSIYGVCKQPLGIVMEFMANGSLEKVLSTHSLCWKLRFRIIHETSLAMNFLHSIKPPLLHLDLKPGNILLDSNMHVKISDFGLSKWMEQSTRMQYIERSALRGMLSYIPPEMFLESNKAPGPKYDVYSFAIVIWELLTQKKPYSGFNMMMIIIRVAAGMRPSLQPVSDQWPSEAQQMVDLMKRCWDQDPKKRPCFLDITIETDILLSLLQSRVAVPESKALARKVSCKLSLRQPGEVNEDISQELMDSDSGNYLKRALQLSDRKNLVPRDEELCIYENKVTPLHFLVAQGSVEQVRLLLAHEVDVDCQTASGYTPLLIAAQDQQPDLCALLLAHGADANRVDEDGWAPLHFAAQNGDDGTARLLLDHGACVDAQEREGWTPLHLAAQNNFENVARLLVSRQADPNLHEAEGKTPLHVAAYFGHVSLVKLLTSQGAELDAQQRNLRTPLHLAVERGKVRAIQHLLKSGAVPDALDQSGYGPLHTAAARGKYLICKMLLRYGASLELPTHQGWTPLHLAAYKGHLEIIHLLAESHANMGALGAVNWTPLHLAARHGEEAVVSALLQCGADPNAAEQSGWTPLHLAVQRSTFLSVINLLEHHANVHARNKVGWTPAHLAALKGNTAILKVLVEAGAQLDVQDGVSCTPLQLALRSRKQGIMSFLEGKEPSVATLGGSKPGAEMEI
Particulars: ANKK1; Published KINOMEscan; ref original PKIS2 published data; cited from earlier work.

Series [6] deals with T3, kinases (KINOMEscan panel) (Homo sapiens, UniProt Q96D53).
T3 sequence (Q96D53 1-544): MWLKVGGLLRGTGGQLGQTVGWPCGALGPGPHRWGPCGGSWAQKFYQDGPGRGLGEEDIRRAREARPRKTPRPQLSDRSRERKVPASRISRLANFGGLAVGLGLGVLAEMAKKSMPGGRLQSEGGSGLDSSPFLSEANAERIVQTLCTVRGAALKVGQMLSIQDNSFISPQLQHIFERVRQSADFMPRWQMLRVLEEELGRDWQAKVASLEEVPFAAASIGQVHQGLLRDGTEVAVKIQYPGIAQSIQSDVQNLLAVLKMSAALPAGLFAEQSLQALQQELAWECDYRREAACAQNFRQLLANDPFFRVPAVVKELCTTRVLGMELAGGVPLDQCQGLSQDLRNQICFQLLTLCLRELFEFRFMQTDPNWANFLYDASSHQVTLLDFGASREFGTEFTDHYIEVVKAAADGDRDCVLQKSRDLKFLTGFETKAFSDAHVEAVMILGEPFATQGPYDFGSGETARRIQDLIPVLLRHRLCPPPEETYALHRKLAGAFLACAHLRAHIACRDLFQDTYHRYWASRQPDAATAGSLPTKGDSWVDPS
Particulars: kinase COQ8B; Published KINOMEscan; ref original PKIS2 published data; cited from earlier work.

For series [7], the target named is T4, kinases (KINOMEscan panel) (Homo sapiens, UniProt Q9BXA7).
T4 sequence (Q9BXA7 1-367): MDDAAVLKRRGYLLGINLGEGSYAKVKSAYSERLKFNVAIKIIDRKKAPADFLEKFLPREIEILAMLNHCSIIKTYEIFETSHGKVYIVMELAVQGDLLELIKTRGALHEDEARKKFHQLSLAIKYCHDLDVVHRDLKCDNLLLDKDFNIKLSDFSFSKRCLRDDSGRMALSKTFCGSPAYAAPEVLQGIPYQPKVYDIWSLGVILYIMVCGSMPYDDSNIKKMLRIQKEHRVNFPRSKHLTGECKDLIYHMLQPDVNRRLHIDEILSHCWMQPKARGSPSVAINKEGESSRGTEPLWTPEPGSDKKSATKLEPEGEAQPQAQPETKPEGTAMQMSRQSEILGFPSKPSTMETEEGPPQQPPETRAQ
The note with it: kinase TSSK1B; Published KINOMEscan; ref original PKIS2 published data; cited from earlier work.

The target of series [8] is kinases (KINOMEscan panel) (Homo sapiens, UniProt Q9UIK4). Particulars: kinase DAPK2; Published KINOMEscan; ref original PKIS2 published data; cited from earlier work.
Chain of kinases (KINOMEscan panel) (Homo sapiens, UniProt Q9UIK4) (Q9UIK4 whole entry): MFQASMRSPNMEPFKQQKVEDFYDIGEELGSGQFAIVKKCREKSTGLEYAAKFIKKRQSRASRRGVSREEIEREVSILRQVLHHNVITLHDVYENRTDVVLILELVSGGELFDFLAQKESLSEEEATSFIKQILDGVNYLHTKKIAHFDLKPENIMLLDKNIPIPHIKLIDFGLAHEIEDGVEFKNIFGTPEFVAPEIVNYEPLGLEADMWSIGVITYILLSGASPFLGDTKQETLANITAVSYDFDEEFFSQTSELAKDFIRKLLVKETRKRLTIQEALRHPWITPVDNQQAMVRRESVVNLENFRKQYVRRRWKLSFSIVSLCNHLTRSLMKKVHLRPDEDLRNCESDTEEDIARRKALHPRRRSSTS

Chain of kinases (KINOMEscan panel) (Homo sapiens, UniProt P30291) (P30291 whole entry): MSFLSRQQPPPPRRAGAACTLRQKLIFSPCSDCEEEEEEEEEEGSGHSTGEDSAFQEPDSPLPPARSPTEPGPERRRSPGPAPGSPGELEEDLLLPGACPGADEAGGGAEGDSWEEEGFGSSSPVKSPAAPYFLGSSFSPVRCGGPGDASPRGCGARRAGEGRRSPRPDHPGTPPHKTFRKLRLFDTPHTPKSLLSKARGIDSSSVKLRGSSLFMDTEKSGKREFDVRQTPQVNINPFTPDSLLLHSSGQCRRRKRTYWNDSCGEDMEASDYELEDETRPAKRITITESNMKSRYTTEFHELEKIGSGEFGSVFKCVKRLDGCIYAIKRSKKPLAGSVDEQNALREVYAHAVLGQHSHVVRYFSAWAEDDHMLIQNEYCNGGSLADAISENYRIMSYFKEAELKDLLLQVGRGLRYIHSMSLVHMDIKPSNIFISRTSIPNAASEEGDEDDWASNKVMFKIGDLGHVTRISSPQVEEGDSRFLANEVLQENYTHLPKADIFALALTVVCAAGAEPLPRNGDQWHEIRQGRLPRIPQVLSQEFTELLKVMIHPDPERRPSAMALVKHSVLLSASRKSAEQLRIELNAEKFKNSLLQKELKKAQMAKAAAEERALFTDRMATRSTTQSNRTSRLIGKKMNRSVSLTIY
Chain of kinases (KINOMEscan panel) (Homo sapiens, UniProt P04049) (P04049 whole entry): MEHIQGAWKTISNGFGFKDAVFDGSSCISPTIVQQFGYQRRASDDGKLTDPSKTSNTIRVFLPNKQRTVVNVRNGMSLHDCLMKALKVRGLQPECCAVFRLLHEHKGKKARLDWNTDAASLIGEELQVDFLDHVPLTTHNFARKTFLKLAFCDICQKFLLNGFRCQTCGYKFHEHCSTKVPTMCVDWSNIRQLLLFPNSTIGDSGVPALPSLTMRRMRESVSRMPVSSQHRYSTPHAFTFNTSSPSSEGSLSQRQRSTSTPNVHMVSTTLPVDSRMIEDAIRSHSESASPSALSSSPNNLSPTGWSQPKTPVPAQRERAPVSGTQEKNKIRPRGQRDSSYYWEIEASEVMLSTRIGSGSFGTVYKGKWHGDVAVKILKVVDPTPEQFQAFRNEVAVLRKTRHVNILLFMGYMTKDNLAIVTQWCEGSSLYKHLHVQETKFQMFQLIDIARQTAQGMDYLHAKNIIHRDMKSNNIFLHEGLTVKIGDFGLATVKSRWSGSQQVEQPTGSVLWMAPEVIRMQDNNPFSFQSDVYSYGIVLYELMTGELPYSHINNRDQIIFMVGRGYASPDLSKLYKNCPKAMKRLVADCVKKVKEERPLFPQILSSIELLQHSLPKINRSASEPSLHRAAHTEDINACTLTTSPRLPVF
Chain of kinases (KINOMEscan panel) (Homo sapiens, UniProt Q16513) (Q16513 whole entry): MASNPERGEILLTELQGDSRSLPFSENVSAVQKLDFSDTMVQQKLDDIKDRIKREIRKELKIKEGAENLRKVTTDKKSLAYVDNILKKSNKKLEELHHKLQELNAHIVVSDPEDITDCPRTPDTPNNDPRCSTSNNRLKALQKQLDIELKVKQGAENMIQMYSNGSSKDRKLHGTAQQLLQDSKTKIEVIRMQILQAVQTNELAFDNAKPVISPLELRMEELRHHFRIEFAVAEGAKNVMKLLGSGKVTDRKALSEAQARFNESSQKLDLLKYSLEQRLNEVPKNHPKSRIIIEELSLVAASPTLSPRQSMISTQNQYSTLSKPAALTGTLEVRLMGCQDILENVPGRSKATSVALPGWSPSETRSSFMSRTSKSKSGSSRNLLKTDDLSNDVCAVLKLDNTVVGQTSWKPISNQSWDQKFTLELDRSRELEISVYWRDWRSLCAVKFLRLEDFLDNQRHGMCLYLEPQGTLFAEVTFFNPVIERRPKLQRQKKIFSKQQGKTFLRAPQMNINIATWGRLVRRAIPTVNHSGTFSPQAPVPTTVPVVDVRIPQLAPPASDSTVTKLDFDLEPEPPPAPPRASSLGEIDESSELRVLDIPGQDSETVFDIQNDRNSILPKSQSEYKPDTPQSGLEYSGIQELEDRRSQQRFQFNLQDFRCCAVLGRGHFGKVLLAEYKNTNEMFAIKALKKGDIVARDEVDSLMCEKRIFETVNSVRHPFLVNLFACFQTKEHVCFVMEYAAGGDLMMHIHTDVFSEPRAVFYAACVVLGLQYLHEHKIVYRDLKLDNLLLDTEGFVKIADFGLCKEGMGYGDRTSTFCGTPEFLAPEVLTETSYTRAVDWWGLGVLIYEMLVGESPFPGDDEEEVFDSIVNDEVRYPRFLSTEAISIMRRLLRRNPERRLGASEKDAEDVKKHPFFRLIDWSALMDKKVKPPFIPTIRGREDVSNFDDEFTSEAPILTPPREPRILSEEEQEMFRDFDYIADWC

As to `Cc1cccc(-c2nc(Nc3ccncc3)c3ccccc3n2)n1` [NK215], in series [1], the “KINOMEscan RAF1” value was 39. The “KINOMEscan WEE1” value in series [2] was 23. Also, the “KINOMEscan GRK1” value in series [3] was 0. Also, in series [4], the “KINOMEscan PKN2” value was 0. The “KINOMEscan ANKK1” value in series [5] is given as 0. Further, the “KINOMEscan COQ8B” value in series [6] is given as 0. Moreover, the “KINOMEscan TSSK1B” value in series [7] is reported as 0. Besides, in series [8], the “KINOMEscan DAPK2” value is listed as 7.
